16 compounds from patent US20260241012A1, “1,8-NAPHTHYRIDIN-2-ONE HETEROBIFUNCTIONAL BCL6 DEGRADERS” (Treeline Biosciences, Inc., priority 2022, published 2026) can be followed below.

Bounds are passed on as bounds.

For the assay, the target named is T1, N-terminal HiBiT tagged BCL6 (Homo sapiens, UniProt P41182).
T1 construct: expressed in transfected cells; host or cells: HT1080 (ATCC CCL-121), stably transduced with lentivirus pLV-UBC-N-HiBiT-BCL6-PGK-puro
The assay is described as follows: HiBiT based degradation assay. Type of assay: cell-based. The note with it: HT1080 cells expressing N-terminal HiBiT tagged BCL6, 5 hours of incubation; for Ymin (5 hr): BCL6 degradation normalized with DMSO control; for DC50: four-parameter logistic model, read-out: EC50 (5 hr). Summed up:
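Degradation measured by luminescence from the Nano-Glo HiBiT lytic reagent (15 min, room temperature), normalized to DMSO controls and fitted to a four-parameter curve.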
(With HiBiT, luminescence reflects the tagged protein that the partner subunit can reach.)

`CNC(=O)COc1cc2cc(Nc3nc(N4CCN(CC5CCC6(CC5)CN(c5cccc7c(C8CCC(=O)NC8=O)nn(C)c57)C6)CC4)ncc3Cl)cnc2n(C)c1=O` (centres unmarked) [Compound 149, 2-((6-((5-chloro-2-(4-((2-(3-(2,6-dioxopiperidin-3-yl)-1-methyl-1H-indazol-7-yl)-2-azaspiro[3.5]nonan-7-yl)methyl)piperazin-1-yl)pyrimidin-4-yl)amino)-1-methyl-2-oxo-1,2-dihydro-1,8-naphthyridin-3-yl)oxy)-N-methylacetamide]: the “Ymin (5 hr)” value is on record as “+++ (30% ≤ Ymin < 50%)” and the DC50 fell in the range of 10 to 100 nM.

Take `CNC(=O)COc1cc2cc(Nc3nc(N4C[C@H](C)N(CC5CCN(c6cccc7c(C8CCC(=O)NC8=O)nn(C)c67)CC5)C[C@H]4C)ncc3Cl)cnc2n(C(C)C)c1=O` (stereo partly drawn) [Compound 179a, 2-[[6-[[5-chloro-2-[(2R,5S)-4-[[1-[3-(2,6-dioxo-3-piperidyl)-1-methyl-indazol-7-yl]-4-piperidyl]methyl]-2,5-dimethyl-piperazin-1-yl]pyrimidin-4-yl]amino]-1-isopropyl-2-oxo-1,8-naphthyridin-3-yl]oxy]-N-methyl-acetamide]: the “Ymin (5 hr)” value is “+++ (30% ≤ Ymin < 50%)” and the DC50 lay within 100 to 1000 nM.

In the case of `CNC(=O)COc1cc2cc(Nc3nc(N4CCN(CC5CCN(c6ccc7c(C8CCC(=O)NC8=O)nn(C)c7c6)CC5)[C@@H](C)C4)ncc3Cl)cnc2n(C(C)C)c1=O` (stereo partly drawn) [Compound 106a, 2-((6-((5-chloro-2-((3S)-4-((1-(3-(2,6-dioxopiperidin-3-yl)-1-methyl-1H-indazol-6-yl)piperidin-4-yl)methyl)-3-methylpiperazin-1-yl)pyrimidin-4-yl)amino)-1-isopropyl-2-oxo-1,2-dihydro-1,8-naphthyridin-3-yl)oxy)-N-methylacetamide], the “Ymin (5 hr)” value was “++ (50% ≤ Ymin < 70%)” and the DC50 is less than 10 nM.

With `CNC(=O)COc1cc2cc(Nc3nc(N4CC5(CCC(Nc6cc7c(cc6F)c(C6CCC(=O)NC6=O)nn7C)CC5)C4)ncc3Cl)cnc2n(C(C)C)c1=O` (centres unmarked) [Compound 184, 2-[[6-[[5-chloro-2-[7-[[3-(2,6-dioxo-3-piperidyl)-5-fluoro-1-methyl-indazol-6-yl]amino]-2-azaspiro[3.5]nonan-2-yl]pyrimidin-4-yl]amino]-1-isopropyl-2-oxo-1,8-naphthyridin-3-yl]oxy]-N-methyl-acetamide], the “Ymin (5 hr)” value is “++++ (Ymin < 30%)” and the DC50 was less than 10 nM.

As to `CNC(=O)COc1cc2cc(Nc3nc(N4C5CC4CN(CC4CCN(c6cccc7c(C8CCC(=O)NC8=O)nn(C)c67)CC4)C5)ncc3Cl)cnc2n(C(C)C)c1=O` (centres unmarked) [Compound 173, 2-[[6-[[5-chloro-2-[3-[[1-[3-(2,6-dioxo-3-piperidyl)-1-methyl-indazol-7-yl]-4-piperidyl]methyl]-3,6-diazabicyclo[3.1.1]heptan-6-yl]pyrimidin-4-yl]amino]-1-isopropyl-2-oxo-1,8-naphthyridin-3-yl]oxy]-N-methyl-acetamide], the “Ymin (5 hr)” value is “++ (50% ≤ Ymin < 70%)” and the DC50 fell in the range of 10 to 100 nM.

With `CNC(=O)COc1cc2cc(Nc3nc(N4CCN(CC5CCN(c6ccc7c(C8CCC(=O)NC8=O)nn(C)c7c6)CC5)CC4)ncc3F)cnc2n(C)c1=O` (centres unmarked) [Compound 134, 2-((6-((2-(4-((1-(3-(2,6-dioxopiperidin-3-yl)-1-methyl-1H-indazol-6-yl)piperidin-4-yl)methyl)piperazin-1-yl)-5-fluoropyrimidin-4-yl)amino)-1-methyl-2-oxo-1,2-dihydro-1,8-naphthyridin-3-yl)oxy)-N-methylacetamide], the “Ymin (5 hr)” value is “+++ (30% ≤ Ymin < 50%)” and the DC50 was less than 10 nM.

Turning to `CNC(=O)COc1cc2cc(Nc3nc(N4CC5(CCC(CN6CCN(c7ccc8c(C9CCC(=O)NC9=O)nn(C)c8c7)CC6)CC5)C4)ncc3Cl)cnc2n(C(C)C)c1=O` (centres unmarked) [Compound 205, 2-((6-((5-chloro-2-(7-((4-(3-(2,6-dioxopiperidin-3-yl)-1-methyl-1H-indazol-6-yl)piperazin-1-yl)methyl)-2-azaspiro[3.5]nonan-2-yl)pyrimidin-4-yl)amino)-1-isopropyl-2-oxo-1,2-dihydro-1,8-naphthyridin-3-yl)oxy)-N-methylacetamide], the “Ymin (5 hr)” value is given as “++++ (Ymin < 30%)” and the DC50 was less than 10 nM.

For the compound `CNC(=O)COc1cc2cc(Nc3nc(N4CC5COCC(C4)N5CC4CCN(c5cccc6c(C7CCC(=O)NC7=O)nn(C)c56)CC4)ncc3Cl)cnc2n(C)c1=O` (centres unmarked) [Compound 117, 2-((6-((5-chloro-2-(9-((1-(3-(2,6-dioxopiperidin-3-yl)-1-methyl-1H-indazol-7-yl)piperidin-4-yl)methyl)-3-oxa-7,9-diazabicyclo[3.3.1]nonan-7-yl)pyrimidin-4-yl)amino)-1-methyl-2-oxo-1,2-dihydro-1,8-naphthyridin-3-yl)oxy)-N-methylacetamide], the “Ymin (5 hr)” value was “++++ (Ymin < 30%)” and the DC50 is less than 10 nM.

In the case of `CNC(=O)COc1cc2cc(Nc3nc(N4CCN(C[C@H]5CCN(c6ccc7c(C8CCC(=O)NC8=O)nn(C)c7c6)C5)CC4)ncc3Cl)cnc2n(C(C)C)c1=O` (stereo partly drawn) [Compound 228b, 2-((6-((5-chloro-2-(4-(((3R)-1-(3-(2,6-dioxopiperidin-3-yl)-1-methyl-1H-indazol-6-yl)pyrrolidin-3-yl)methyl)piperazin-1-yl)pyrimidin-4-yl)amino)-1-isopropyl-2-oxo-1,2-dihydro-1,8-naphthyridin-3-yl)oxy)-N-methylacetamide], the “Ymin (5 hr)” value was “++ (50% ≤ Ymin < 70%)” and the DC50 lay in the range of 10 to 100 nM.

For `CNC(=O)COc1cc2cc(Nc3nc(N4CC[C@H](CN5CCN(c6cccc7c(C8CCC(=O)NC8=O)nn(C)c67)CC5)[C@H](C)C4)ncc3Cl)cnc2n(C(C)C)c1=O` (stereo partly drawn) [Compound 177a, 2-((6-((5-chloro-2-((3S,4S)-4-((4-(3-(2,6-dioxopiperidin-3-yl)-1-methyl-1H-indazol-7-yl)piperazin-1-yl)methyl)-3-methylpiperidin-1-yl)pyrimidin-4-yl)amino)-1-isopropyl-2-oxo-1,2-dihydro-1,8-naphthyridin-3-yl)oxy)-N-methylacetamide], the “Ymin (5 hr)” value was “++++ (Ymin < 30%)” and the DC50 lay within 10 to 100 nM.

As for `CNC(=O)COc1cc2cc(Nc3nc(N4CCC(CN5CCN(c6cccc7c(C8CCC(=O)NC8=O)nn(C)c67)C[C@H]5C)CC4)ncc3F)cnc2n(C(C)C)c1=O` (stereo partly drawn) [Compound 188a, 2-[[6-[[2-[4-[[(2R)-4-[3-(2,6-dioxo-3-piperidyl)-1-methyl-indazol-7-yl]-2-methyl-piperazin-1-yl]methyl]-1-piperidyl]-5-fluoro-pyrimidin-4-yl]amino]-1-isopropyl-2-oxo-1,8-naphthyridin-3-yl]oxy]-N-methyl-acetamide], the “Ymin (5 hr)” value was “+++ (30% ≤ Ymin < 50%)” and the DC50 was in the range of 10 to 100 nM.

Consider `CNC(=O)COc1cc2cc(Nc3nc(N4CC5(CN(CC6CCN(c7cccc8c(C9CCC(=O)NC9=O)nn(C)c78)CC6)C5)C4)ncc3Cl)cnc2n(C)c1=O` (centres unmarked) [Compound 119, 2-((6-((5-chloro-2-(6-((1-(3-(2,6-dioxopiperidin-3-yl)-1-methyl-1H-indazol-7-yl)piperidin-4-yl)methyl)-2,6-diazaspiro[3.3]heptan-2-yl)pyrimidin-4-yl)amino)-1-methyl-2-oxo-1,2-dihydro-1,8-naphthyridin-3-yl)oxy)-N-methylacetamide], for which the “Ymin (5 hr)” value is recorded as “+++ (30% ≤ Ymin < 50%)” and the DC50 was less than 10 nM.

With `CNC(=O)COc1cc2cc(Nc3nc(N4CC5(CCC(Nc6ccc(F)c7c(C8CCC(=O)NC8=O)nn(C)c67)CC5)C4)ncc3Cl)cnc2n(C(C)C)c1=O` (centres unmarked) [Compound 198, 2-[[6-[[5-chloro-2-[7-[[3-(2,6-dioxo-3-piperidyl)-4-fluoro-1-methyl-indazol-7-yl]amino]-2-azaspiro[3.5]nonan-2-yl]pyrimidin-4-yl]amino]-1-isopropyl-2-oxo-1,8-naphthyridin-3-yl]oxy]-N-methyl-acetamide], the “Ymin (5 hr)” value is on record as “++ (50% ≤ Ymin < 70%)” and the DC50 was in the range of 10 to 100 nM.

Take `CNC(=O)COc1cc2cc(Nc3nc(N4C[C@H]5C[C@@H]4CN5CC4CCN(c5cccc6c(C7CCC(=O)NC7=O)nn(C)c56)CC4)ncc3Cl)cnc2n(C(C)C)c1=O` (stereo partly drawn) [Compound 174a, 2-[[6-[[5-chloro-2-[(1R,4R)-5-[[1-[3-(2,6-dioxo-3-piperidyl)-1-methyl-indazol-7-yl]-4-piperidyl]methyl]-2,5-diazabicyclo[2.2.1]heptan-2-yl]pyrimidin-4-yl]amino]-1-isopropyl-2-oxo-1,8-naphthyridin-3-yl]oxy]-N-methyl-acetamide]: the “Ymin (5 hr)” value is reported as “++ (50% ≤ Ymin < 70%)” and the DC50 was less than 10 nM.

For the compound `CNC(=O)COc1cc2cc(Nc3nc(N4CCN(CC5CCN(c6cccc7c(C8CCC(=O)NC8=O)nn(C)c67)CC5)CC4)ncc3F)cnc2n(C)c1=O` (centres unmarked) [Compound 135, 2-((6-((2-(4-((1-(3-(2,6-dioxopiperidin-3-yl)-1-methyl-1H-indazol-7-yl)piperidin-4-yl)methyl)piperazin-1-yl)-5-fluoropyrimidin-4-yl)amino)-1-methyl-2-oxo-1,2-dihydro-1,8-naphthyridin-3-yl)oxy)-N-methylacetamide], the “Ymin (5 hr)” value was “++++ (Ymin < 30%)” and the DC50 was less than 10 nM.

In the case of `CNC(=O)COc1cc2cc(Nc3nc(N4CCC(CN5[C@@H](C)CN(c6cccc7c(C8CCC(=O)NC8=O)nn(C)c67)C[C@@H]5C)CC4)ncc3Cl)cnc2n(C(C)C)c1=O` (stereo partly drawn) [Compound 197b, 2-[[6-[[5-chloro-2-[4-[[(2S,6S)-4-[3-(2,6-dioxo-3-piperidyl)-1-methyl-indazol-7-yl]-2,6-dimethyl-piperazin-1-yl]methyl]-1-piperidyl]pyrimidin-4-yl]amino]-1-isopropyl-2-oxo-1,8-naphthyridin-3-yl]oxy]-N-methyl-acetamide], the “Ymin (5 hr)” value is “++++ (Ymin < 30%)” and the DC50 lay within 10 to 100 nM.
